Laboratory results as given in the NIST ThermoML archive (doi:10.1016/j.fluid.2007.08.001).
Numbers after ± are expanded uncertainties.

Settings: Liquid; for mass density: 303.15 K, 95.3 kPa, Pycnometric method

| Compound | mass density [kg/m3] | other results |
| --- | --- | --- |
| Clc1ccccc1 [chlorobenzene] | 1095.52 ± 1.1 | vapor or sublimation pressure (402.35 K): 95.3 ± 1.9 kPa |
| CCc1ccccc1 [ethylbenzene] | 858.2 ± 0.86 | vapor or sublimation pressure (406.95 K): 95.3 ± 1.9 kPa |
| Brc1ccccc1 [bromobenzene] | 1481.48 ± 1.7 | vapor or sublimation pressure (426.85 K): 95.3 ± 1.9 kPa |
| Cc1ccccc1 [toluene] | 857.66 ± 0.86 | vapor or sublimation pressure (381.65 K): 95.3 ± 1.9 kPa |
| C[S+](C)[O-] [dimethyl sulfoxide] | 1092.4 ± 1.1 | vapor or sublimation pressure (460.95 K): 95.3 ± 1.9 kPa |
| O=[N+]([O-])c1ccccc1 [nitrobenzene] | 1193.4 ± 1.3 | vapor or sublimation pressure (483.05 K): 95.3 ± 1.9 kPa |
